Source: EP1123702A1, “ANALGESICS” (Eisai Co., Ltd., priority 1998, dated 2000)

Columns and labels:
[1] = Muscle relaxing action (in vivo); settings: method of JP98/01481 or JP-A 10-281752
Description: There are also shown a serotonin (5HT) receptor binding action (RBA; in vitro) and a muscle relaxing action (in vivo) measured according to a method described in JP98/01481 or JP-A 10-281752. (In the table, "n.t." means "not tested").

5HT1A = biological target: T1, 5HT1A (Homo sapiens, UniProt P08908); test: Serotonin (5HT) receptor binding action (RBA; in vitro), 5HT1A; settings: method of JP98/01481 or JP-A 10-281752
T1 sequence (P08908 1-422): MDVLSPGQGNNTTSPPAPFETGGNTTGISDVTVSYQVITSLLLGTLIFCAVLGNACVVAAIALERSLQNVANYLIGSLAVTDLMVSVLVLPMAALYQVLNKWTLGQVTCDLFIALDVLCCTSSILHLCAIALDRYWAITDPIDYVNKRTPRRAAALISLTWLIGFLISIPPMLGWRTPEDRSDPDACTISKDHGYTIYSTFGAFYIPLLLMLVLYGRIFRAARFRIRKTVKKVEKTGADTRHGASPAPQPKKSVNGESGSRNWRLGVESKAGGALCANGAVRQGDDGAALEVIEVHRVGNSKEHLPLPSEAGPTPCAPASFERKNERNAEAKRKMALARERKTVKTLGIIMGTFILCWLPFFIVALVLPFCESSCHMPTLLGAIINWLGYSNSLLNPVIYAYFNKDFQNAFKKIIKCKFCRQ

writhing behavior = test: Analgesic action by a writhing method using acetic acid; assay type: in vivo, Male mice of a ddY strain; settings: sc; statistically minimum effective dose; 0.6% acetic acid ip 15 minutes after the drug, writhing counted for ten minutes; mice
5HT2 = 5HT2 (Homo sapiens, UniProt P28223); test: Serotonin (5HT) receptor binding action (RBA; in vitro), 5HT2; settings: method of JP98/01481 or JP-A 10-281752
Sequence of 5HT2 (P28223 whole entry, species assumed): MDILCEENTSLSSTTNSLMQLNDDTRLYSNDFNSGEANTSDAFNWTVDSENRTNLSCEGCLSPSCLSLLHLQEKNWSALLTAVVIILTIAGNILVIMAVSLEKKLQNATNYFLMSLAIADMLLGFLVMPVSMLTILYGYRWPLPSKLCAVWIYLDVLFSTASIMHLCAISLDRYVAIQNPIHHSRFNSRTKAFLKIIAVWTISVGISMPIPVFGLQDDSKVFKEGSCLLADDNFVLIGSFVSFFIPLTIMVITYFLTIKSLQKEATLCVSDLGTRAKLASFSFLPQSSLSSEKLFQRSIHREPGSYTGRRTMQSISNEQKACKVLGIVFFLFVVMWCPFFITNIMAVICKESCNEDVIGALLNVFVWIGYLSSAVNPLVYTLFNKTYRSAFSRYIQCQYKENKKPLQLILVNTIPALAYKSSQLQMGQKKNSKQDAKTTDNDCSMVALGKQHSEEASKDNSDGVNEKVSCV

| SMILES | Muscle-Relaxing Action (ip) [1] [mg/kg] | Muscle-Relaxing Action (po) [1] [mg/kg] | Ki (5HT1A) [nM] | Analgesic Action (minimum effective dose) (writhing behavior) [mg/kg] | Ki (5HT2) [nM] |
| --- | --- | --- | --- | --- | --- |
| CCN1CCN(c2nc(-c3ccc(OCC(C)(C)O)cc3)cc3sccc23)CC1.Cl [(25), 4-(4-ethylpiperazin-1-yl)-6-[4-(2-hydroxy-2-methylpropoxy)phenyl]thieno[3,2-c]pyridine hydrochloride] | 0.3 | 1 | 54.9 | 10 | 1.4 |
| CNC(=O)Cc1ccc2ccn(C3CCN(CCc4ccccc4F)CC3)c2c1 [(10), 1-[1-(2-fluorophenethyl)piperidin-4-yl]-6-(N-methylamidemethyl)indole] | 3 | < 1 | 4.02 | 3 | 1.23 |
| CCN1CCN(c2nc(-c3ccc(OCCO)c(C#N)c3)cc3ccccc23)CC1.Cl [(21), 1-(4-ethylpiperazin-1-yl)-3-(3-cyano-4-hydroxyethoxyphenyl)isoquinoline hydrochloride] | 10 | – | 13.4 | 1 | 4.5 |
| CC(=O)NCc1ccc2c(c1)N(C1CCN(CCc3ccc(F)cc3)CC1)CC2 [(14), 1-[1-(4-fluorophenethyl)piperidin-4-yl]-6-(N-acetylaminomethyl)indoline] | 0.3 | 0.3 | 6.43 | 0.3 | 0.43 |
| CCC(=O)NCc1ccc2ccn(C3CCN(CCc4ccc(F)cc4)CC3)c2c1 [(2), 1-[1-(4-fluorophenethyl)piperidin-4-yl]-6-(N-propionylaminomethyl)indole] | 0.3 | 3 | 1 | 3 | 2.6 |
| CCN1CCN(c2nc(-c3ccc(CCCO)c(OC)c3)cc3ccccc23)CC1.Cl [(20), 1-(4-ethylpiperazin-1-yl)-3-(3-methoxy-4-hydroxypropylphenyl)isoquinoline hydrochloride] | – | 10 | 7.9 | 3 | 10.9 |
